The source of these data is publication PMC6214026, “PSMA-Oriented Target Delivery of Novel Anticancer Prodrugs: Design, Synthesis, and Biological Evaluations of Oligopeptide-Camptothecin Conjugates” (International Journal of Molecular Sciences, 2018).

The structures appear in SMILES notation. Read-outs that look alike come from different tables or passages of the source.

Broadly, the IC50 is the concentration at which inhibition is half-maximal.

In test [1] the test system is LNCaP-FGC cells (PSMA-expressing). As to the kind of experiment: MTT cytotoxicity assay, LNCaP-FGC. It counts as cell-based, human. The following applies: 72 h, read-out: IC50 LNCaP-FGC. How it is done:
(§1) The cytotoxicities of PSMA-activated prodrug CPT-HT-J-ZLn and PSMA hydrolysate CPT-D-GLn were evaluated by MTT assays on PSMA-expressing (PSMA^+) cancer cell LNCaP-FGC, non-PSMA-expressing (PSMA^−) cancer cells HepG2, MCF-7, Hela, DU145, and PC-3, and normal cells MDCK, LO2, respectively, using CPT as a positive control.
(§2) The human prostate cancer cell line (LNCaP-FGC), human prostate cancer cell line (PC-3), human prostate cancer cell line (DU-145), human breast cancer cell line (MCF-7), human hepatocellular carcinoma cell line (HepG2), human cervical cancer cell line (Hela), were obtained from the Chinese Academy of Medical Sciences and Peking Union Medical College. The cultures of the cells were maintained as a monolayer in RPMI 1640 or DMEM supplemented with 10% (v/v) heat inactivated fetal bovine serum and 1% (v/v) enicillin/streptomycin (Corning, New York, NY, USA) and incubated at 37 °C in a humidified atmosphere with 5% CO2. The tested compounds were dissolved in DMSO (Sigma, St. Louis, MO, USA) and added at required concentrations to the cell culture.
(§3) The cytotoxicity of all the tested compounds was evaluated in vitro via the MTT method against PSMA-expressing LNCaP-FGC cells and non-PSMA-expressing cells HepG2, Hela, MCF-7, DU145, PC-3 cells using CPT as the positive control. Tumor cells growing in the logarithmic phase were seeded in 96-well plates at a density 3 × 10^3 cells/well and incubated overnight. The following day, cells were then treated with serial dilutions of the tested compounds for 72 h. At the end of this incubation, 20 µL of 5 mg/mL methylthiazol tetrazolium (MTT) was added to each well and incubation proceeded at 37 °C for another 4 h. After the supernatant medium was thrown away, 150 µL dimethylsulphoxide (DMSO) were added to each well and absorbance was measured at 490 nm using a plate reader (BIORAD 550 spectrophotometer, Bio-rad Life Science Development Ltd., Berkeley, CA, USA). Experiments were performed in triplicate and the values were the average of three (n = 3) independent experiments. The concentration of the compound that results in 50% growth inhibition corresponds to the IC50. Tumor cell growth inhibitory rate was calculated using Equation (1): % inhibition = (1 − Sample group OD/Control group OD) × 100%(1)
In general terms: Tetrazolium dyes change colour on reduction, which living cells bring about.

Test [2] relates to HeLa cells (non-PSMA-expressing). The experiment in a line: MTT cytotoxicity assay, HeLa. The following applies: 72 h, mean ± SD, n = 3. The class given is cell-based, human. The procedure:
as §1
The tested compounds were dissolved in DMSO (Sigma, St. Louis, MO, USA) and added at required concentrations to the cell culture.
as §3, with “experiments.” for “experiments. The concentration of the compound that results in 50% growth inhibition corresponds to the IC50. Tumor cell growth inhibitory rate was calculated using Equation (1): % inhibition = (1 − Sample group OD/Control group OD) × 100%(1)”

For the next test, the system named is LO2 cells. As to the kind of experiment: cells. The class given is cell-based. The following applies: read-out: IC50 LO2. How it is done:
as §1, §3

A further test has as its system MDCK cells. As to the kind of experiment: cells. The class given is cell-based. The following applies: 72 h, read-out: IC50 MDCK. The procedure: as §1, §3
In test [3] the test system is MCF-7 cells (non-PSMA-expressing). The experiment in a line: cells. The class given is cell-based, human. The following applies: read-out: IC50 MCF-7. The procedure:
as §1, §2, §3

Test [4] concerns PC-3 cells (non-PSMA-expressing). The experiment in a line: cells. The class given is cell-based, human. The following applies: read-out: IC50 PC-3. How it is done:
as §1, §2, §3

Test [5] has as its system HepG2 cells (non-PSMA-expressing). The experiment in a line: cells. It counts as cell-based, human. The following applies: read-out: IC50 HepG2. How it is done:
as §1, §2, §3

For test [6], the system named is DU145 cells (non-PSMA-expressing). The experiment in a line: cells. The class given is cell-based, human. The following applies: read-out: IC50 DU145. How it is done:
as §1, §2, §3

On to `CC[C@@]1(OC(=O)CN)C(=O)OCc2c1cc1n(c2=O)Cc2cc3ccccc3nc2-1` [CPT-B-L2, (S)-4-ethyl-3,14-dioxo-3,4,12,14-tetrahydro-1H-pyrano[3′,4′:6,7]indolizino[1,2-b]quinolin-4-yl glycinate], for which the concentration for half-maximal inhibition (IC50) in test [1] (Homo sapiens) was found to be 0.38 ± 0.1 µM; in test [2] (Homo sapiens, HeLa) it was 10 ± 2 µM; with LO2 cells (Homo sapiens, L02, 72 h), 5.61 ± 1.4 µM; in the test with MDCK cells (Canis lupus familiaris, MDCK), 5.16 ± 1.2 µM; in test [3] (Homo sapiens, MCF7, 72 h), 4.11 ± 3.09 µM; in test [4] (Homo sapiens, PC-3, 72 h), 5.19 ± 0.3 µM. The half-inhibitory concentration (IC50) is more than 40 µM in test [5] (Homo sapiens, HepG2, 72 h) and 0.12 ± 0.09 µM in test [6] (Homo sapiens, DU-145, 72 h).

Take `CC[C@@]1(OC(=O)CCCCCCCCCCCNC(=O)[C@H](CCC(=O)N[C@@H](CCC(=O)N[C@@H](CCC(=O)N[C@@H](CC(=O)OC(C)(C)C)C(=O)N[C@@H](CCC(=O)OC(C)(C)C)C(=O)OC(C)(C)C)C(=O)OC(C)(C)C)C(=O)OC(C)(C)C)NC(=O)OC(C)(C)C)C(=O)OCc2c1cc1n(c2=O)Cc2cc3ccccc3nc2-1` [CPT-HT-J-L12, 1,11,16,3-tetra-tert-butyl 34-((S)-4-ethyl-3,14-dioxo-3,4,12,14-tetrahydro-1H-pyrano[3′,4′:6,7]indolizino[1,2-b]quinolin-4-yl) (3S,6S,11S,16S,21S)-6-(2-(tert-butoxy)-2-oxoethyl)-21-((tert-butoxycarbonyl)amino)-5,8,13,18,22-pentaoxo-4,7,12,17,23-pentaazatetratriacontane-1,3,11,16,34-pentacarboxylate]: the IC50 in test [1] (MTT, mean ± SD, n = 3, PSMA+) was more than 40 µM; in test [2], more than 40 µM; in the test on LO2 cells (MTT, 72 h, normal cells), more than 40 µM; with MDCK cells (MTT, normal cells), more than 40 µM; in test [3] (MTT, 72 h, mean ± SD, n = 3), more than 40 µM; in test [4] (MTT, 72 h, mean ± SD, n = 3), more than 40 µM. Besides, the half-maximal inhibitory concentration (IC50) in test [5] (MTT, 72 h, mean ± SD, n = 3) is more than 40 µM; in test [6] (MTT, 72 h, mean ± SD, n = 3) it was more than 40 µM.

In the case of `CC[C@@]1(OC(=O)CCCNC(=O)[C@@H](N)CCC(=O)N[C@@H](CCC(=O)N[C@@H](CCC(=O)N[C@@H](CC(=O)O)C(=O)N[C@@H](CCC(=O)O)C(=O)O)C(=O)O)C(=O)O)C(=O)OCc2c1cc1n(c2=O)Cc2cc3ccccc3nc2-1` [CPT-HT-J-ZL4, (3S,6S,11S,16S,21S)-21-amino-6-(carboxymethyl)-27-(((S)-4-ethyl-3,14-dioxo-3,4,12,14-tetrahydro-1H-pyrano[3′,4′:6,7]indolizino[1,2-b]quinolin-4-yl)oxy)-5,8,13,18,22,27-hexaoxo-4,7,12,17,23-pentaazaheptacosane-1,3,11,16-tetracarboxylic acid], the IC50 in test [1] (MTT, mean ± SD, n = 3, PSMA+) is 1.18 ± 0.1 µM; in test [2] it was more than 40 µM; in the test on LO2 cells (MTT, 72 h, normal cells) it was more than 40 µM; in the test on MDCK cells (MTT, normal cells), 9.13 ± 2.4 µM; in test [3] (MTT, 72 h, mean ± SD, n = 3), 0.32 ± 0.01 µM; in test [4] (MTT, 72 h, mean ± SD, n = 3), 9.98 ± 2.38 µM. The IC50 in test [5] (MTT, 72 h, mean ± SD, n = 3) was more than 40 µM; in test [6] (MTT, 72 h, mean ± SD, n = 3), 9.73 ± 3.49 µM.

Regarding `CC[C@@]1(OC(=O)CCCCCNC(=O)[C@H](CCC(=O)N[C@@H](CCC(=O)N[C@@H](CCC(=O)N[C@@H](CC(=O)OC(C)(C)C)C(=O)N[C@@H](CCC(=O)OC(C)(C)C)C(=O)OC(C)(C)C)C(=O)OC(C)(C)C)C(=O)OC(C)(C)C)NC(=O)OC(C)(C)C)C(=O)OCc2c1cc1n(c2=O)Cc2cc3ccccc3nc2-1` [CPT-HT-J-L6, 1,11,16,3-tetra-tert-butyl 28-((S)-4-ethyl-3,14-dioxo-3,4,12,14-tetrahydro-1H-pyrano[3′,4′:6,7]indolizino[1,2-b]quinolin-4-yl) (3S,6S,11S,16S,21S)-6-(2-(tert-butoxy)-2-oxoethyl)-21-((tert-butoxycarbonyl)amino)-5,8,13,18,22-pentaoxo-4,7,12,17,23-pentaazaoctacosane-1,3,11,16,28-pentacarboxylate], the IC50 in test [1] (MTT, mean ± SD, n = 3, PSMA+) is more than 40 µM; in test [2], more than 40 µM; with LO2 cells (MTT, 72 h, normal cells), more than 40 µM; with MDCK cells (MTT, normal cells) it was more than 40 µM; in test [3] (MTT, 72 h, mean ± SD, n = 3), more than 40 µM; in test [4] (MTT, 72 h, mean ± SD, n = 3), more than 40 µM. Besides, the IC50 in test [5] (MTT, 72 h, mean ± SD, n = 3) is more than 40 µM; in test [6] (MTT, 72 h, mean ± SD, n = 3) it was more than 40 µM.

`CC[C@@]1(OC(=O)CCCNC(=O)[C@H](CCC(=O)N[C@@H](CCC(=O)N[C@@H](CCC(=O)N[C@@H](CC(=O)OC(C)(C)C)C(=O)N[C@@H](CCC(=O)OC(C)(C)C)C(=O)OC(C)(C)C)C(=O)OC(C)(C)C)C(=O)OC(C)(C)C)NC(=O)OC(C)(C)C)C(=O)OCc2c1cc1n(c2=O)Cc2cc3ccccc3nc2-1` [CPT-HT-J-L4, 1,11,16,3-tetra-tert-butyl 26-((S)-4-ethyl-3,14-dioxo-3,4,12,14-tetrahydro-1H-pyrano[3′,4′:6,7]indolizino[1,2-b]quinolin-4-yl) (3S,6S,11S,16S,21S)-6-(2-(tert-butoxy)-2-oxoethyl)-21-((tert-butoxycarbonyl)amino)-5,8,13,18,22-pentaoxo-4,7,12,17,23-pentaazahexacosane-1,3,11,16,26-pentacarboxylate]: the IC50 was more than 40 µM in test [1] (MTT, mean ± SD, n = 3, PSMA+); more than 40 µM in test [2]; more than 40 µM in the test with LO2 cells (MTT, 72 h, normal cells); more than 40 µM in the test with MDCK cells (MTT, normal cells); more than 40 µM in test [3] (MTT, 72 h, mean ± SD, n = 3); more than 40 µM in test [4] (MTT, 72 h, mean ± SD, n = 3). Also, the IC50 in test [5] (MTT, 72 h, mean ± SD, n = 3) is more than 40 µM; in test [6] (MTT, 72 h, mean ± SD, n = 3), more than 40 µM.

`CC[C@@]1(OC(=O)CNC(=O)[C@@H](N)CCC(=O)N[C@@H](CCC(=O)N[C@@H](CCC(=O)N[C@@H](CC(=O)O)C(=O)N[C@@H](CCC(=O)O)C(=O)O)C(=O)O)C(=O)O)C(=O)OCc2c1cc1n(c2=O)Cc2cc3ccccc3nc2-1` [CPT-HT-J-ZL2, ((S)-4-((S)-4-((S)-4-amino-5-((2-(((S)-4-ethyl-3,14-dioxo-3,4,12,14-tetrahydro-1H-pyrano[3′,4′:6,7]indolizino[1,2-b]quinolin-4-yl)oxy)-2-oxoethyl)amino)-5-oxopentanamido)-4-carboxybutanamido)-4-carboxybutanoyl)-L-aspartyl-L-glutamic acid]: the half-inhibitory concentration (IC50) turned out to be 2.04 ± 0.3 µM in test [1] (MTT, mean ± SD, n = 3, PSMA+); 3.54 ± 2.54 µM in test [2]; 1.68 ± 0.45 µM in the test with LO2 cells (MTT, 72 h, normal cells); 1.27 ± 0.3 µM in the test on MDCK cells (MTT, normal cells); 0.11 ± 0.08 µM in test [3] (MTT, 72 h, mean ± SD, n = 3); 1 ± 0.1 µM in test [4] (MTT, 72 h, mean ± SD, n = 3). The 50% inhibitory concentration (IC50) was more than 40 µM in test [5] (MTT, 72 h, mean ± SD, n = 3) and 1.16 ± 0.28 µM in test [6] (MTT, 72 h, mean ± SD, n = 3).
